These results are taken from ChEMBL document CHEMBL5291721, “A preclinical secondary pharmacology resource illuminates target-adverse drug reaction associations of marketed drugs” (Nat Commun, 2023).

The target of the test is T1, Muscarinic acetylcholine receptor M4 (Homo sapiens, UniProt P08173).
T1 sequence (P08173 whole entry): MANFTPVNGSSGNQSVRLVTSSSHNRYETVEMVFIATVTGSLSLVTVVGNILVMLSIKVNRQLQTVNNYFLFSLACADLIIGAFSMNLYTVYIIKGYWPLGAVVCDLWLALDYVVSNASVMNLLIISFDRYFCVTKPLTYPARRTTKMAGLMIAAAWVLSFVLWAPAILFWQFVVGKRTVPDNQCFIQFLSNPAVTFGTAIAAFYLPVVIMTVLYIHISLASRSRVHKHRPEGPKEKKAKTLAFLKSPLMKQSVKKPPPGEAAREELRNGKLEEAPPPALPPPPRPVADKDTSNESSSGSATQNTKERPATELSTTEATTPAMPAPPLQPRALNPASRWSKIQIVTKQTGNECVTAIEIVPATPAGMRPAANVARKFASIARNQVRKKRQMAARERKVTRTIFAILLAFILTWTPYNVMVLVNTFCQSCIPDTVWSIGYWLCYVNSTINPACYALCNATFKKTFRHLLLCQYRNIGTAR

Bounds are passed on as bounds.
Further: assay procedure not described here.

In turn, `CCOc1ccccc1OCC1CNCCO1` (stereo unspecified) [VILOXAZINE] gave an AC50 above 10 µM.
